In ChEMBL document CHEMBL1201862, “PubChem BioAssay data set” (2004):
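These data come from cells grown in 96-well plates and exposed to compound for 48 hours at five concentrations. GI50 marks 50% less growth.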 Activity calls are given as the source filed them. Rule as the data show it: active = GI50 up to about 1.1 µM and inactive = higher.

Columns and labels:
Assay in all cases: inhibition of tumour cell growth, NCI panel, 48 h
SF-539 = tested on: SF-539
SW-620 = tested on: SW-620
COLO 205 = tested on: COLO 205
SNB-75 = tested on: SNB-75
NCI-H23 = tested on: NCI-H23
RXF 393 = tested on: RXF 393
CCRF-CEM = tested on: CCRF-CEM
Malme-3M = tested on: Malme-3M
UO-31 = tested on: UO-31
K562 = tested on: K562
UACC-257 = tested on: UACC-257
HCT-15 = tested on: HCT-15
IGROV-1 = tested on: IGROV-1
HCT-116 = tested on: HCT-116
EKVX = tested on: EKVX
HOP-92 = tested on: HOP-92
786-0 = tested on: 786-0
SK-OV-3 = tested on: SK-OV-3
SK-MEL-28 = tested on: SK-MEL-28
SN12C = tested on: SN12C
A549 = tested on: A549
KM12 = tested on: KM12
M19-MEL = tested on: M19-MEL
DLD-1 = tested on: DLD-1
XF498 = tested on: XF498
OVCAR-3 = tested on: OVCAR-3
NCI-H226 = tested on: NCI-H226
HOP-18 = tested on: HOP-18
U-251 = tested on: U-251
OVCAR-5 = tested on: OVCAR-5
ACHN = tested on: ACHN
DMS-273 = tested on: DMS-273
LOX IMVI = tested on: LOX IMVI
SK-MEL-5 = tested on: SK-MEL-5
SNB-19 = tested on: SNB-19
HT-29 = tested on: HT-29
HL-60 = tested on: HL-60
RPMI-8226 = tested on: RPMI-8226
OVCAR-4 = tested on: OVCAR-4
HOP-62 = tested on: HOP-62
SK-MEL-2 = tested on: SK-MEL-2
A498 = tested on: A498
CAKI-1 = tested on: CAKI-1
NCI-H460 = tested on: NCI-H460
TK-10 = tested on: TK-10
OVCAR-8 = tested on: OVCAR-8
HCC 2998 = tested on: HCC 2998
DMS-114 = tested on: DMS-114
MOLT-4 = tested on: MOLT-4
SF-268 = tested on: SF-268
LXFL 529 = tested on: LXFL 529
SNB-78 = tested on: SNB-78
NCI-H522 = tested on: NCI-H522
M14 = tested on: M14
KM-20L2 = tested on: KM-20L2
SF-295 = tested on: SF-295
SR = tested on: SR
UACC-62 = tested on: UACC-62

## CC12CCc3ccccc3C1=NNC(=O)C2 (stereo unspecified)
SF-539
  GI50: > 100 µM (inactive)
SW-620
  GI50: > 100 µM (inactive)
COLO 205
  GI50: > 100 µM (inactive)
SNB-75
  GI50: > 100 µM (inactive)
NCI-H23
  GI50: > 100 µM (inactive)
RXF 393
  GI50: > 100 µM (inactive)
CCRF-CEM
  GI50: > 100 µM (inactive)
Malme-3M
  GI50: > 100 µM (inactive)
UO-31
  GI50: > 100 µM (inactive)
K562
  GI50: > 100 µM (inactive)
UACC-257
  GI50: > 100 µM (inactive)
HCT-15
  GI50: > 100 µM
IGROV-1
  GI50: > 100 µM (inactive)
HCT-116
  GI50: > 100 µM (inactive)
EKVX
  GI50: > 100 µM (inactive)
HOP-92
  GI50: > 100 µM (inactive)
786-0
  GI50: > 100 µM (inactive)
SK-OV-3
  GI50: > 100 µM (inactive)
SK-MEL-28
  GI50: > 100 µM (inactive)
SN12C
  GI50: > 100 µM (inactive)
A549
  GI50: > 100 µM (inactive)
KM12
  GI50: > 100 µM (inactive)
M19-MEL
  GI50: > 100 µM (inactive)
DLD-1
  GI50: > 100 µM (inactive)
XF498
  GI50: > 100 µM (inactive)
OVCAR-3
  GI50: > 100 µM (inactive)
NCI-H226
  GI50: > 100 µM (inactive)
HOP-18
  GI50: > 100 µM (inactive)
U-251
  GI50: > 100 µM (inactive)
OVCAR-5
  GI50: > 100 µM (inactive)
ACHN
  GI50: > 100 µM (inactive)
DMS-273
  GI50: > 100 µM (inactive)
LOX IMVI
  GI50: > 100 µM (inactive)
SK-MEL-5
  GI50: > 100 µM (inactive)
SNB-19
  GI50: > 100 µM (inactive)
HT-29
  GI50: > 100 µM (inactive)
HL-60
  GI50: 82 µM (inactive)
RPMI-8226
  GI50: > 100 µM (inactive)
OVCAR-4
  GI50: > 100 µM (inactive)
HOP-62
  GI50: > 100 µM (inactive)
SK-MEL-2
  GI50: > 100 µM (inactive)
A498
  GI50: > 100 µM (inactive)
CAKI-1
  GI50: > 100 µM (inactive)
NCI-H460
  GI50: > 100 µM (inactive)
TK-10
  GI50: > 100 µM (inactive)
OVCAR-8
  GI50: > 100 µM (inactive)
HCC 2998
  GI50: > 100 µM (inactive)
DMS-114
  GI50: > 100 µM (inactive)
MOLT-4
  GI50: > 100 µM (inactive)
SF-268
  GI50: > 100 µM (inactive)
LXFL 529
  GI50: > 100 µM (inactive)
SNB-78
  GI50: > 100 µM (inactive)
NCI-H522
  GI50: > 100 µM (inactive)
M14
  GI50: > 100 µM (inactive)
KM-20L2
  GI50: > 100 µM (inactive)
SF-295
  GI50: > 100 µM (inactive)

## [O-]c1c2c(nn1-c1ccc(Cl)cc1)c1ccccc1c[n+]2Cc1ccccc1
SF-539
  GI50: 80.4 µM (inactive)
SW-620
  GI50: > 100 µM (inactive)
SR
  GI50: > 100 µM (inactive)
COLO 205
  GI50: > 100 µM (inactive)
SNB-75
  GI50: 32.2 µM (inactive)
UACC-62
  GI50: 44.6 µM (inactive)
NCI-H23
  GI50: > 100 µM (inactive)
RXF 393
  GI50: 27 µM (inactive)
CCRF-CEM
  GI50: > 100 µM (inactive)
Malme-3M
  GI50: 45.4 µM (inactive)
UO-31
  GI50: > 100 µM (inactive)
K562
  GI50: > 100 µM (inactive)
UACC-257
  GI50: > 100 µM (inactive)
IGROV-1
  GI50: 62.4 µM (inactive)
HCT-116
  GI50: > 100 µM (inactive)
EKVX
  GI50: > 100 µM (inactive)
786-0
  GI50: 33.3 µM (inactive)
SK-OV-3
  GI50: 40.2 µM (inactive)
SK-MEL-28
  GI50: > 100 µM (inactive)
SN12C
  GI50: > 100 µM (inactive)
A549
  GI50: 63.4 µM (inactive)
KM12
  GI50: > 100 µM (inactive)
M19-MEL
  GI50: > 10 µM (inactive)
DLD-1
  GI50: 81.5 µM (inactive)
XF498
  GI50: 35 µM (inactive)
OVCAR-3
  GI50: > 100 µM (inactive)
NCI-H226
  GI50: > 100 µM (inactive)
HOP-18
  GI50: > 100 µM (inactive)
U-251
  GI50: > 100 µM (inactive)
OVCAR-5
  GI50: > 100 µM (inactive)
ACHN
  GI50: 80.5 µM (inactive)
DMS-273
  GI50: > 100 µM (inactive)
LOX IMVI
  GI50: > 100 µM (inactive)
SK-MEL-5
  GI50: 58.7 µM (inactive)
SNB-19
  GI50: > 100 µM (inactive)
HT-29
  GI50: > 100 µM (inactive)
HL-60
  GI50: > 100 µM (inactive)
RPMI-8226
  GI50: > 100 µM (inactive)
OVCAR-4
  GI50: 46.2 µM (inactive)
HOP-62
  GI50: > 100 µM (inactive)
SK-MEL-2
  GI50: > 100 µM (inactive)
CAKI-1
  GI50: > 100 µM (inactive)
NCI-H460
  GI50: > 100 µM (inactive)
TK-10
  GI50: > 100 µM (inactive)
OVCAR-8
  GI50: 65.9 µM (inactive)
HCC 2998
  GI50: > 100 µM (inactive)
DMS-114
  GI50: > 100 µM (inactive)
MOLT-4
  GI50: > 100 µM (inactive)
SF-268
  GI50: 95.3 µM (inactive)
LXFL 529
  GI50: > 100 µM (inactive)
SNB-78
  GI50: > 100 µM (inactive)
NCI-H522
  GI50: 58.9 µM (inactive)
M14
  GI50: > 100 µM (inactive)
KM-20L2
  GI50: > 100 µM (inactive)
SF-295
  GI50: 78.9 µM (inactive)
